Values joined by “and” are separate entries in the source; they are usually repeats but may differ in a detail not shown here. Identical values can stand only once. Like-named read-outs stand apart in the source and are kept apart here.
Key:
Format in all cases: in vivo
[1] = tested on: New Zealand White rabbits
Protocol: On Days 1-31, animals received daily topical doses of the appropriate test article into the right eye. Animals were dosed four times per day, with doses administered 2 hours apart. Doses were administered using a calibrated 50-μL pipette. The eyelids were held close for 10 seconds immediately following dosing. The time of each dose administration was recorded.
Animals determined to be moribund were euthanized with an intravenous injection of commercial euthanasia solution.

leukocytes (PMN) = experiment: Leukocytes (PMN) measurement in aqueous humor, rabbit paracentesis model; details: second paracentesis; for PMN in aqueous humor: individual eyes
Protocol: (§1) Each rabbit was placed in a restraint device and tagged with the alphanumeric code. The formulations were instilled (50 μl) into the conjunctival sac of both eyes 180, 120, 90 and 30 min before the first paracentesis; then 15, 30, 90 min after the first paracentesis. To perform the first paracentesis the animals were anaesthetized by intravenous injection of 5 mg/kg Zoletil® (Virbac; 2.5 mg/kg tiletamine HCl and 2.5 mg/kg zolazepam HCl) and one drop of local anesthetic (Novesina®, Novartis) was administered to the eye. Anterior chamber paracentesis was performed with a 26 G needle attached to a tuberculin syringe; the needle was introduced into the anterior chamber through the cornea, taking care not to damage the tissues. Two hours after the ® first paracentesis, the animals were sacrificed with 0.4 ml Tanax® (Intervet International B.V.) and the second paracentesis was performed. About 100 μl of aqueous humor were removed at the second paracentesis. Aqueous humor was immediately split in four aliquots and stored at −80° C. until analysis. Then both eyes were enucleated and the iris-ciliary body was carefully excised, placed in polypropylene tubes, and stored at −80° C. until analysis.
For the determination of the number of leukocytes we used a haemocytometer (Improved Neubauer Chamber; Bright-line. Hausser Scientific) and a Polyvar 2 microscope (Reichert-Jung).
(§2) Pupillary diameter, PGE2, protein, PMN, and MPO were expressed as mean±SEM. Statistical analysis was performed using one way ANOVA followed by a Newman-Keuls post hoc test. Clinical score was expressed as % of eyes and the statistical analysis was performed using Kruskal-Wallis followed by a Dunn post hoc test. P<0.05 was considered statistically significant in both cases. Prism 4 software (GraphPad Software, Inc.) was used for the analysis and graphs.

[2] = tested on: protein concentration in the aqueous humor; experiment: Protein measurement in aqueous humor, rabbit paracentesis model; details: for Protein in aqueous humor, Mean / Protein in aqueous humor: second paracentesis; for Protein in aqueous humor: individual eyes
Protocol: as §1
For protein concentration determination in the aqueous humor we used the Protein Quantification Kit (Fluka; Cat. No. 77371; Lot. No. 1303129). Five microliters of aqueous humor were diluted to 100 μl with water. Twenty microliters of samples and of standards were load into a 96-well plate and recorded in a plate layout. Samples were treated following the assay procedure described in the kit. A microplate reader (GDV, Italy; model DV 990 B/V6) set at 670 nm was used for making the calibration and analyzing the samples.
as §2

Myeloperoxidase (MPO) = Myeloperoxidase (MPO) activity in iris-ciliary body, rabbit paracentesis model; details: for MPO Unit/g: iris-ciliary body samples collected after the second paracentesis, individual eyes (DX/SX); for MPO activity in iris-ciliary body, Mean: after the second paracentesis
Protocol: as §1
The activity of MPO was measured as previously described by Williams et al. The iris-ciliary bodies were carefully dried, weighed and immersed in 1 ml of hexa-decyl-trimethyl-ammonium bromide solution. Then, the samples were sonicated for 10 sec on ice by a ultrasound homogenizer (HD 2070, Bandelin electronic), freeze-thawed three times, sonicated for 10 sec and centrifuged at 14,000 g for 10 min to remove cellular debris. An aliquot of the supernatant (40-200 μl) was diluted to 3 ml with the o-dianisidine 2HCl/H2O2 solution. The change in absorbance at 460 nm was continuously monitored for 5 min by a spectrophotometer (UV/Vis Spectrometer Lambda EZ 201; Perkin Elmer). The slope of the line (Δ/min) was determined for each sample and used to calculate the number of units of MPO in the tissue as follows:
were ε=11.3 mM^−1. Values were expressed as units of MPO/g of tissue.
as §2

[3] = tested on: PGE2 in the aqueous humor; experiment: Prostaglandin E2 (PGE2) measurement in aqueous humor, rabbit paracentesis model; details: for PGE2 in aqueous humor, statistical significance versus CTR: p<0.05; for PGE2 in aqueous humor, Mean / PGE2 in aqueous humor: second paracentesis; for PGE2 in aqueous humor: individual eyes
Protocol: as §1
For the quantitative determination of PGE2 in the aqueous humor we used the PGE2 Immunoassay kit (R&D Systems; Cat. No. KGE004; Lot. No. 240010). Eleven microliters or 16 μl of aqueous humor were diluted to 110 μl or 160 μl with the calibrator diluent solution provided with the kit. One hundred microliters of samples and of standards were load into a 96-well plate and recorded in a plate layout. Samples were treated following the assay procedure described in the kit. A microplate reader (GDV, Italy; model DV 990 B/V6) set at 450 nm (wavelength correction at 540 nm) was used for making the calibration and analyzing the samples.
as §2

rabbit eye [4] = experiment: Pupillary diameter measurement, rabbit paracentesis model; details: individual eyes; for Pupillary diameter T2: −5 min: 5 min before the first paracentesis; for Pupillary diameter T3: +115 min: 5 min before the second paracentesis; for Pupillary diameter Δ(T3 − T1): +115 min minus −180 min; for Pupillary diameter T1: −180 min: basal
Protocol: as §1
The pupillary diameter of both eyes was measured with a Castroviejo caliper 180 min and 5 min before the first paracentesis and 5 min before the second paracentesis.
as §2

rabbit eye [5] = experiment: Clinical evaluation by slit lamp (clinical score), rabbit paracentesis model; design: key to Clinical Score −180 min / Clinical Score −5 min / Clinical Score +115 min: 0: normal; 1: discrete dilatation of iris and conjunctival vessels; 2: moderate dilatation of iris and conjunctival vessels; 3: intense iridal hyperemia with flare in the anterior chamber; 4: intense iridal hyperemia with flare in the anterior chamber and presence of fibrinous exudates; details: for Clinical Score −5 min: 5 min before the first paracentesis; for Clinical Score −5 min / Clinical Score +115 min / Clinical Score −180 min: individual eyes; for Clinical Score +115 min: 5 min before the second paracentesis; for Clinical Score −180 min: basal
[6] = 5 mg/g BOL-303242-X ([…]) topical 4 x daily, individual rabbits, Group C
[7] = 1 mg/g BOL-303242-X (0.05 mg/dose) topical 4 x daily, individual rabbit, Group D
[8] = 0.5% topical formulation, +115 min, 8 eyes

Structure (SMILES): Cc1ccc2c(NC[C@](O)(CC(C)(C)c3cc(F)cc4c3OCC4)C(F)(F)F)cccc2n1 [BOL-30324 2-X]
- Day of Death (day euthanized or found dead) [1, 6]: 17
- Recorded Notes (mortality) [1, 6]: Euthanized due to severe diarrhea.

Structure (SMILES): Cc1ccc2c(NC[C@](O)(CC(C)(C)c3cc(F)cc4c3OCC4)C(F)(F)F)cccc2n1 [BOL-303242 X]
- Day of Death (day euthanized or found dead) [1, 7]: 29
- Recorded Notes (mortality) [1, 7]: Found dead.

Structure (SMILES): CC(C(=O)O)c1ccc(-c2ccccc2)c(F)c1 (stereo not drawn) [F, flurbiprofen, reference compound]
- PMN in aqueous humor, Mean (leukocytes (PMN); 0.03% topical formulation): 30.000 number/μl
- PMN in aqueous humor (leukocytes (PMN); 0.03% topical formulation): 50 number/μl and 40 number/μl (2×) and 20 number/μl (2×) and 10 number/μl and 30 number/μl
- Protein in aqueous humor, statistical significance vs CTR ([2]; 0.03% topical formulation, p<0.001): statistical significance
- Protein in aqueous humor, Mean ([2]; 0.03% topical formulation): 20.910 mg/mL
- Protein in aqueous humor ([2]; 0.03% topical formulation): 20.78 mg/mL and 28.80 mg/mL and 23.41 mg/mL and 20.21 mg/mL and 17.53 mg/mL and 15.12 mg/mL and 20.52 mg/mL
- MPO Unit/g (Myeloperoxidase (MPO); 0.03% F): 1.10 Unit/g and 1.70 Unit/g and 0.34 Unit/g and 0.75 Unit/g and 0.74 Unit/g and 0.63 Unit/g and 0.73 Unit/g and 1.27 Unit/g
- MPO activity in iris-ciliary body, Mean (Myeloperoxidase (MPO); 0.03% topical formulation): 0.906 MPO Unit/g
- PGE2 in aqueous humor, statistical significance versus CTR ([3]; 0.03% topical formulation): statistically significant versus CTR
- PGE2 in aqueous humor, Mean ([3]; 0.03% topical formulation): 1.189 ng/mL
- PGE2 in aqueous humor ([3]; 0.03% topical formulation): 1.04 ng/ml and 0.75 ng/ml and 0.85 ng/ml and 1.11 ng/ml and 2.11 ng/ml (2×) and 0.93 ng/ml and 0.61 ng/ml
- Pupillary diameter T2: −5 min (rabbit eye [4]; 0.03% topical formulation): 6.0 mm (3×) and 6.5 mm (3×) and 7.0 mm and 5.5 mm
- Pupillary diameter T3: +115 min (rabbit eye [4]; 0.03% topical formulation): 4.0 mm and 3.5 mm and 5.5 mm (2×) and 5.0 mm (2×) and 4.5 mm and 6.0 mm
- Pupillary diameter Δ(T3 − T1) (rabbit eye [4]; 0.03% topical formulation): −1.0 mm (3×) and −1.5 mm (3×) and 0.0 mm (2×)
- Pupillary diameter T1: −180 min (rabbit eye [4]; 0.03% topical formulation): 5.0 mm (2×) and 7.0 mm and 6.0 mm (4×) and 5.5 mm
- Clinical Score −5 min (rabbit eye [5]; 0.03% topical formulation): 0
- Clinical Score +115 min (rabbit eye [5]; 0.03% topical formulation): 2
- Clinical score as percentage of eyes, Score (%) 2 (rabbit eye [5]; 0.03% topical formulation, +115 min, 8 eyes): 100%
- Clinical Score −180 min (rabbit eye [5]; 0.03% topical formulation): 0
- Clinical score as percentage of eyes, Score (%) 0 (rabbit eye [5]; 0.03% topical formulation, −5 min, 8 eyes): 100%
- Clinical score as percentage of eyes, Score (%) 0 (rabbit eye [5]; 0.03% topical formulation, −180 min (basal), 8 eyes): 100%

Structure (SMILES): CCOC(=O)O[C@]1(C(=O)OCCl)CC[C@H]2[C@@H]3CCC4=CC(=O)C=C[C@]4(C)[C@H]3[C@@H](O)C[C@@]21C [LE, loteprednol etabonate, reference compound]
- PMN in aqueous humor, Mean (leukocytes (PMN); 0.5% topical formulation): 28.333 number/μl
- PMN in aqueous humor (leukocytes (PMN); 0.5% topical formulation): 40 number/μl (2×) and 20 number/μl (3×) and 30 number/μl
- Protein in aqueous humor, Mean ([2]; 0.5% topical formulation): 33.905 mg/mL
- Protein in aqueous humor ([2]; 0.5% topical formulation): 36.14 mg/mL and 39.10 mg/mL and 34.69 mg/mL and 26.10 mg/mL and 26.30 mg/mL and 28.16 mg/mL and 40.90 mg/mL and 39.85 mg/mL
- MPO Unit/g (Myeloperoxidase (MPO); 0.5% LE): 0.30 Unit/g and 0.51 Unit/g and 0.81 Unit/g and 0.60 Unit/g and 0.73 Unit/g and 1.01 Unit/g
- MPO activity in iris-ciliary body, Mean (Myeloperoxidase (MPO); 0.5% topical formulation): 0.661 MPO Unit/g
- PGE2 in aqueous humor, statistical significance versus CTR ([3]; 0.5% topical formulation): statistically significant versus CTR
- PGE2 in aqueous humor, Mean ([3]; 0.5% topical formulation): 0.672 ng/mL
- PGE2 in aqueous humor ([3]; 0.5% topical formulation): ^2N/D and 0.23 ng/ml and 0.68 ng/ml and 1.10 ng/ml
- Pupillary diameter T2: −5 min (rabbit eye [4]; 0.5% topical formulation): 6.0 mm (3×) and 6.5 mm (5×)
- Pupillary diameter T3: +115 min (rabbit eye [4]; 0.5% topical formulation): 4.5 mm and 5.0 mm (2×) and 5.5 mm (2×) and 6.0 mm (3×)
- Pupillary diameter Δ(T3 − T1) (rabbit eye [4]; 0.5% topical formulation): −1.5 mm (2×) and −1.0 mm (3×) and 0.0 mm and −0.5 mm (2×)
- Pupillary diameter T1: −180 min (rabbit eye [4]; 0.5% topical formulation): 6.0 mm (3×) and 6.5 mm (5×)
- Clinical Score −5 min (rabbit eye [5]; 0.5% topical formulation): 0
- Clinical Score +115 min (rabbit eye [5]; 0.5% topical formulation): 2 (2×) and 1 (6×)
- Clinical score as percentage of eyes, Score (%) 1 (rabbit eye [5]; [8]): 75%
- Clinical score as percentage of eyes, Score (%) 2 (rabbit eye [5]; [8]): 25%
- Clinical Score −180 min (rabbit eye [5]; 0.5% topical formulation): 0
- Clinical score, difference versus CTR (rabbit eye [5]; 0.5% topical formulation, p<0.05): significant difference versus CTR
- Clinical score as percentage of eyes, Score (%) 0 (rabbit eye [5]; 0.5% topical formulation, −5 min, 8 eyes): 100%
- Clinical score as percentage of eyes, Score (%) 0 (rabbit eye [5]; 0.5% topical formulation, −180 min (basal), 8 eyes): 100%

Reference: patent US20120065228A1, “COMPOSITIONS AND METHODS FOR TREATING, CONTROLLING, REDUCING, OR AMELIORATING OCULAR INFLAMMATORY WITH LOWER RISK OF INCREASED INTRAOCULAR PRESSURE” (priority 2007, published 2012)
